Test results as given in BindingDB's records for doi:10.1016/j.bmcl.2006.01.011 (Purdue University, 2006).

Biological target: T1, Dimer of Gag-Pol polyprotein [501-599,Q508K,L534I,L564I,C568A,C596A] (Human immunodeficiency virus 1, UniProt P03367, C568A/C596A/L534I/L564I/Q508K)
T1 construct: 501-599
Assay: Protease Inhibition Assay
Settings: pH 6.4; 25 °C
Method: The Ki values were determined using fluorogenic substrate, 2-(aminobenzoyl)-Thr-Ile-Nle-Phe(p-NO2)-Gln-ArgNH2. A standard curve relating changes in fluorescent intensity to changes in concentration of product was used to convert fluorescent changes into molar velocities. The amount of cleavage was determined by HPLC.

Row | SMILES | Ki [nM]
1 | C=CCC1(N(CC(C)C)C[C@@H](O)[C@H](Cc2ccccc2)NC(=O)O[C@H]2CO[C@H]3OCC[C@H]32)C(=O)Nc2ccccc21 (stereo partly drawn) [(3R,3aS,6aR)-hexahydrofuro[2,3-b]furan-3-yl N-[(2S,3R)-3-hydroxy-4-[(2-methylpropyl)[2-oxo-3-(prop-2-en-1-yl)-2,3-dihydro-1H-indol-3-yl]amino]-1-phenylbutan-2-yl]carbamate] | 4.5
2 | CC(C)CN(C[C@@H](O)[C@H](Cc1ccccc1)NC(=O)O[C@H]1CO[C@H]2OCC[C@H]21)C1(C)C(=O)Nc2ccccc21 (stereo partly drawn) [(3R,3aS,6aR)-hexahydrofuro[2,3-b]furan-3-yl N-[(2S,3R)-3-hydroxy-4-[(3-methyl-2-oxo-2,3-dihydro-1H-indol-3-yl)(2-methylpropyl)amino]-1-phenylbutan-2-yl]carbamate] | 4.5
3 | COc1ccc2c(c1)C(C)(N(CC(C)C)C[C@@H](O)[C@H](Cc1ccccc1)NC(=O)O[C@H]1CO[C@H]3OCC[C@H]31)C(=O)N2 (stereo partly drawn) [(3R,3aS,6aR)-hexahydrofuro[2,3-b]furan-3-yl N-[(2S,3R)-3-hydroxy-4-[(5-methoxy-3-methyl-2-oxo-2,3-dihydro-1H-indol-3-yl)(2-methylpropyl)amino]-1-phenylbutan-2-yl]carbamate] | 116
4 | CC(C)CN(C[C@@H](O)[C@H](Cc1ccccc1)NC(=O)O[C@H]1CO[C@H]2OCC[C@H]21)C1(C)C(=O)N(C)c2ccccc21 (stereo partly drawn) [(3R,3aS,6aR)-hexahydrofuro[2,3-b]furan-3-yl N-[(2S,3R)-4-[(1,3-dimethyl-2-oxo-2,3-dihydro-1H-indol-3-yl)(2-methylpropyl)amino]-3-hydroxy-1-phenylbutan-2-yl]carbamate] | 51
5 | O=C(N[C@@H](Cc1ccccc1)[C@H](O)CN1CC=CCCC12C(=O)Nc1ccccc12)O[C@H]1CO[C@H]2OCC[C@H]21 (stereo partly drawn) [(3R,3aS,6aR)-hexahydrofuro[2,3-b]furan-3-yl N-[(2S,3R)-4-{1',2',1,3,4,7-hexahydrospiro[azepine-2,3'-indole]-2'-one}-3-hydroxy-1-phenylbutan-2-yl]carbamate] | > 1000
6 | O=C(N[C@@H](Cc1ccccc1)[C@H](O)CN1CCCCCC12C(=O)Nc1ccccc12)O[C@H]1CO[C@H]2OCC[C@H]21 (stereo partly drawn) [(3R,3aS,6aR)-hexahydrofuro[2,3-b]furan-3-yl N-[(2S,3R)-4-{1',2'-dihydrospiro[azepane-2,3'-indole]-2'-one}-3-hydroxy-1-phenylbutan-2-yl]carbamate] | > 1000
7 | O=C(N[C@@H](Cc1ccccc1)[C@H](O)CN1CCCCC12C(=O)Nc1ccccc12)O[C@H]1CO[C@H]2OCC[C@H]21 (stereo partly drawn) [(3R,3aS,6aR)-hexahydrofuro[2,3-b]furan-3-yl N-[(2S,3R)-4-{1,2-dihydrospiro[indole-3,2'-piperidine]-2-one}-3-hydroxy-1-phenylbutan-2-yl]carbamate] | > 1000
